Laboratory results as given in patent US20230104936A1, “TRPML MODULATORS” (Casma Therapeutics, Inc., priority 2019, published 2023).

System: TFEB
Test: TFEB nuclear translocation assay, HeLa wt cells
Format: cell-based
Conditions: 2 hrs compound treatment, Table 1 does not say HeLa wt or TRPML1 KO
How it was run: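 HeLa wt cells were treated with compound for 2 hrs at 37° C, then fixed in 4% PFA and immunostained for TFEB with an Alexa 488 secondary and Hoechst nuclear counterstain. Automated epifluorescence imaging at ×20 gave the ratio of nuclear TFEB intensity to a perinuclear ring region, from which AC50 was derived.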

Structure (SMILES)	AC50 (Homo sapiens, HeLa, 2 h)	AC50
CN(C)S(=O)(=O)c1ccc(S(=O)(=O)Nc2cc(Cl)ccc2N2CCOCC2)nc1 [Compound A-330, N2-[5-chloro-2-(morpholin-4-yl)phenyl]-N5,N5-dimethylpyridine-2,5-disulfonamide]	≥ 10 µM	–
CCC(C)(C)N1CCN(c2ccccc2NS(=O)(=O)c2ccc(S(=O)(=O)N(C)C)cc2)CC1 [Compound A-455, N1,N1-dimethyl-N4-{2-[4-(2-methylbutan-2-yl)piperazin-1-yl]phenyl}benzene-1,4-disulfonamide]	2.01 to 8 µM	–
COc1ccc(S(=O)(=O)Nc2cccnc2N2CCN(c3ccc(C#N)cc3F)CC2)cc1 [Compound A-117, N-{2-[4-(4-cyano-2-fluorophenyl)piperazin-1-yl]pyridin-3-yl}-4-methoxybenzene-1-sulfonamide]	≥ 10 µM	–
CC1(C)Cc2cc(S(=O)(=O)Nc3ccccc3N3CCCC4(CCCOC4)C3)ccc2O1 (stereo not shown) [Compound A-632, 2,2-dimethyl-N-(2-{2-oxa-8-azaspiro[5.5]undecan-8-yl}phenyl)-2,3-dihydro-1-benzofuran-5-sulfonamide]	≤ 2 µM	–
O=S(=O)(Nc1cc(Cl)ccc1N1CCCC2(COC2)C1)c1ccc2c(c1)CCC2 [Compound A-345, N-(5-chloro-2-{2-oxa-6-azaspiro[3.5]nonan-6-yl}phenyl)-2,3-dihydro-1H-indene-5-sulfonamide]	2.01 to 8 µM	–
CN(C)S(=O)(=O)c1ccc(S(=O)(=O)Nc2nn(C)cc2C2CCN(c3ccccc3F)CC2)cc1 [Compound A-40, N1-(4-(1-(2-fluorophenyl)piperidin-4-yl)-1-methyl-1H-pyrazol-3-yl)-N4,N4-dimethylbenzene-1,4-disulfonamide]	2.01 to 8 µM	–
CC(C)(C)C(=O)N1CCN(c2ccccc2NS(=O)(=O)c2ccc(C(C)(C)C#N)cc2)CC1 [Compound A-535, 4-(1-cyano-1-methylethyl)-N-{2-[4-(2,2-dimethylpropanoyl)piperazin-1-yl]phenyl}benzene-1-sulfonamide]	2.01 to 8 µM	–
CN(C)S(=O)(=O)c1ccc(S(=O)(=O)Nc2ccccc2N2CCN(CC(F)F)CC2)cc1 [Compound A-552, N4-{2-[4-(2,2-difluoroethyl)piperazin-1-yl]phenyl}-N1,N1-dimethylbenzene-1,4-disulfonamide]	≤ 2 µM	–
COCC(F)(F)C1CCN(c2c(F)cccc2NS(=O)(=O)c2ccc(S(=O)(=O)N(C)C)cc2)CC1 [Compound A-861, N4-{2-[4-(1,1-difluoro-2-methoxyethyl)piperidin-1-yl]-3-fluorophenyl}-N1,N1-dimethylbenzene-1,4-disulfonamide]	≤ 2 µM	–
C[C@@H]1CN(CC2CCN(c3c(F)cccc3NS(=O)(=O)c3ccc(S(C)(=N)=O)cc3)CC2)C[C@H](C)O1 (stereo partly drawn) [Compound A-841, N-(2-(4-(((2R,6S)-2,6-dimethylmorpholino)methyl)piperidin-1-yl)-3-fluorophenyl)-4-(S-methylsulfonimidoyl)benzenesulfonamide]	2.01 to 8 µM	–
C[C@H]1COC[C@H](C)N1CC1CN(c2c(F)cccc2NS(=O)(=O)c2ccc(S(=O)(=O)N(C)C)cc2)C1 (stereo in doubt) [Compound A-916, rel-N4-[2-(3-{[(3R,5R)-3,5-dimethylmorpholin-4-yl]methyl}azetidin-1-yl)-3-fluorophenyl]-N1,N1-dimethylbenzene-1,4-disulfonamide]	≥ 10 µM	–
COC(C)(C)C(=O)N1CCN(c2ccccc2NS(=O)(=O)c2ccc(S(=O)(=O)N(C)C)cc2)CC1 [Compound A-431, N4-{2-[4-(2-methoxy-2-methylpropanoyl)piperazin-1-yl]phenyl}-N1,N1-dimethylbenzene-1,4-disulfonamide]	2.01 to 8 µM	–
CC1(C)Cc2cc(S(=O)(=O)Nc3cccc(F)c3N3CCC(CN4C5CCC4COC5)CC3)ccc2O1 [Compound A-880, N-{3-fluoro-2-[4-({3-oxa-8-azabicyclo[3.2.1]octan-8-yl}methyl)piperidin-1-yl]phenyl}-2,2-dimethyl-2,3-dihydro-1-benzofuran-5-sulfonamide]	≤ 2 µM	–
O=S1(=O)CCC2(CC1)CN(c1ccc(Cl)cc1NS(=O)(=O)c1ccc3c(c1)CCC3)CCO2 [Compound A-317, N-(5-chloro-2-{9,9-dioxo-1-oxa-9λ^6-thia-4-azaspiro[5.5]undecan-4-yl}phenyl)-2,3-dihydro-1H-indene-5-sulfonamide]	2.01 to 8 µM	–
CC(c1cccc(F)c1N1CCCCC1)S(=O)(=O)c1ccc2c(c1)CCS2(=N)=O (single isomer, unassigned) [Compound A-960]	–	≥ 10 µM
O=S1(=O)c2ccccc2CN1c1ccccc1N1CCC(c2ccc(Cl)cc2F)CC1 [Compound A-94, 2-{2-[4-(4-chloro-2-fluorophenyl)piperidin-1-yl]phenyl}-2,3-dihydro-1λ^6,2-benzothiazole-1,1-dione]	2.01 to 8 µM	–
CC(c1cccc(F)c1N1CCC(COC(C)(C)C)CC1)S(=O)(=O)c1ccc(S(=N)(=O)N(C)C)cc1 (single isomer, unassigned) [Compound A-962, 4-((1-(2-(4-(tert-butoxymethyl)piperidin-1-yl)-3-fluorophenyl)ethyl)sulfonyl)-N,N-dimethylbenzenesulfonimidamide]	–	≤ 2 µM

Structure (SMILES)	AC50 (Homo sapiens, HeLa, 2 h)	AC50
C[C@@H]1CN(CC2CCN(c3c(F)cccc3[C@@H](C)S(=O)(=O)c3ccc(S(=N)(=O)N(C)C)cc3)CC2)C[C@H](C)O1 (single isomer, unassigned) [Compound A-902]	≥ 10 µM	–
CN(C)S(=O)(=O)c1ccc(NC(c2ccccc2N2CCC(c3ccc(Cl)cc3F)CC2)C(F)(F)F)cc1 (stereo not shown) [Compound A-241, 4-((1-(2-(4-(4-chloro-2-fluorophenyl)piperidin-1-yl)phenyl)-2,2,2-trifluoroethyl)amino)-N,N-dimethylbenzenesulfonamide]	≥ 10 µM	–
C[C@@H]1CN(CC2CCN(c3c(F)cccc3NS(=O)(=O)c3ccc(S(=O)(=O)C(F)F)cc3)CC2)C[C@H](C)O1 [Compound A-758, 4-difluoromethanesulfonyl-N-[2-(4-{[(2R,6S)-2,6-dimethylmorpholin-4-yl]methyl}piperidin-1-yl)-3-fluorophenyl]benzene-1-sulfonamide]	≤ 2 µM	–
CN(C)S(=O)(=O)c1ccc(S(=O)(=O)Nc2cccc(Cl)c2N2CCN(C(=O)C(C)(C)C)CC2)cc1 [Compound A-352, N4-{3-chloro-2-[4-(2,2-dimethylpropanoyl)piperazin-1-yl]phenyl}-N1,N1-dimethylbenzene-1,4-disulfonamide]	2.01 to 8 µM	–
CC1(C)CC2(CCN(c3c(F)cccc3NS(=O)(=O)Cc3ccccc3)CC2)CO1 [Compound A-702, N-(2-{3,3-dimethyl-2-oxa-8-azaspiro[4.5]decan-8-yl}-3-fluorophenyl)-1-phenylmethanesulfonamide]	≤ 2 µM	–
COCC1(C)CCN(c2ccccc2NS(=O)(=O)c2ccc3c(c2)CC(OC)C3)CC1 (stereo not shown) [Compound A-707, 2-methoxy-N-{2-[4-(methoxymethyl)-4-methylpiperidin-1-yl]phenyl}-2,3-dihydro-1H-indene-5-sulfonamide]	2.01 to 8 µM	–
COCC1(C)CCN(c2ccccc2NS(=O)(=O)c2ccc(C3CC3)s2)CC1 [Compound A-708, 5-cyclopropyl-N-{2-[4-(methoxymethyl)-4-methylpiperidin-1-yl]phenyl}thiophene-2-sulfonamide]	≤ 2 µM	–
O=S(=O)(Nc1ccccc1N1CCC(c2ccc(Cl)cc2F)CC1)c1ccc(C(F)(F)F)cc1F [Compound A-159, N-{2-[4-(4-chloro-2-fluorophenyl)piperidin-1-yl]phenyl}-2-fluoro-4-(trifluoromethyl)benzene-1-sulfonamide]	2.01 to 8 µM	–
CC(C)(C)C(=O)N1CCN(c2ccccc2NS(=O)(=O)Cc2cccc3cccnc23)CC1 [Compound A-565, N-{2-[4-(2,2-dimethylpropanoyl)piperazin-1-yl]phenyl}-1-(quinolin-8-yl)methanesulfonamide]	8.01 to 9.99 µM	–
CN(C)S(=O)(=O)c1ccc(C(Nc2cccc(Cl)c2N2CCOCC2)C(F)(F)F)cc1 (stereo not shown) [Compound A-342, 4-(1-{[3-chloro-2-(morpholin-4-yl)phenyl]amino}-2,2,2-trifluoroethyl)-N,N-dimethylbenzene-1-sulfonamide]	8.01 to 9.99 µM	–
CC(c1cncc(F)c1N1CCC(F)(F)CC1)S(=O)(=O)c1ccc(S(=O)(=O)N(C)C)cc1 (stereo not shown) [Compound A-986, 4-{1-[4-(4,4-difluoropiperidin-1-yl)-5-fluoropyridin-3-yl]ethanesulfonyl}-N,N-dimethylbenzene-1-sulfonamide]	≥ 10 µM	–
CN(C)S(=O)(=O)c1ccc([S+]([O-])c2ccccc2N2CCC(c3ccc(Cl)cc3F)CC2)cc1 (stereo not shown) [Compound A-181, 4-((2-(4-(4-chloro-2-fluorophenyl)piperidin-1-yl)phenyl)sulfinyl)-N,N-dimethylbenzenesulfonamide]	2.01 to 8 µM	–
Cc1ccc(CS(=O)(=O)Nc2ccccc2N2CCC3(CC2)COC(C)(C)C3)cc1C [Compound A-663, N-(2-{3,3-dimethyl-2-oxa-8-azaspiro[4.5]decan-8-yl}phenyl)-1-(3,4-dimethylphenyl)methanesulfonamide]	≤ 2 µM	–
COCC1(C)CCN(c2ccccc2NS(=O)(=O)c2ccc3c(c2)OC(C)(C)C3)CC1 [Compound A-738, N-{2-[4-(methoxymethyl)-4-methylpiperidin-1-yl]phenyl}-2,2-dimethyl-2,3-dihydro-1-benzofuran-6-sulfonamide]	≤ 2 µM	–
CC(C)(C)C(=O)N1CCN(c2ccccc2NS(=O)(=O)C2(c3ccccc3)CC2)CC1 [Compound A-564, N-{2-[4-(2,2-dimethylpropanoyl)piperazin-1-yl]phenyl}-1-phenylcyclopropane-1-sulfonamide]	≤ 2 µM	–
CN(C)S(=O)(=O)c1ccc(S(=O)(=O)Nc2cc(Cl)ccc2N2CCOCC2)cc1 [Compound A-290, N4-[5-chloro-2-(morpholin-4-yl)phenyl]-N1,N1-dimethylbenzene-1,4-disulfonamide]	≥ 10 µM	–
CNC1(c2ccc(Cl)cc2F)CCN(c2ccccc2NS(=O)(=O)c2ccc(S(=O)(=O)N(C)C)cc2)CC1 [Compound A-212, N4-{2-[4-(4-chloro-2-fluorophenyl)-4-(methylamino)piperidin-1-yl]phenyl}-N1,N1-dimethylbenzene-1,4-disulfonamide]	≤ 2 µM	–
